In US12219958B2, “Glufosinate additive for improved weed control” (THE BOARD OF TRUSTEES OF THE UNIVERSITY OF ARKANSAS, priority 2019, dated 2025):
Structures can show the parent of a compound that is named as a salt.

Tests used:
[1] = system: Enlist cotton, XtendFlex cotton, LibertyLink GT27 soybean, and LibertyLink corn; conditions: in vivo
Palmer amaranth = assay: Field experiment, Palmer amaranth control with glufosinate + additive at 10 pm (Example 5, FIG. 11); assay type: in vivo, Amaranthus palmeri
johnsongrass = assay: Field experiment, johnsongrass control with glufosinate + additive at 10 pm (Example 5, FIG. 12); assay type: in vivo
[2] = system: Enlist cotton, XtendFlex cotton, LibertyLink GT27 soybean, and LibertyLink corn; conditions: in vivo; remark: listed apart in the source
[3] = system: native mixture of Palmer amaranth and waterhemp; parameters: species or system Amaranthus palmeri, Amaranthus tuberculatus; conditions: in vivo
[4] = system: native large crabgrass populations; assay: Field experiment, large crabgrass control (Examples 2 and 3, FIG. 6); assay type: in vivo; conditions: added to glufosinate 655 g ai/ha; saflufenacil 1 g ai/ha, acifluorfen 14 g ai/ha; 10 pm

| SMILES | crop response [1] | increase in glufosinate efficacy of Palmer amaranth (Palmer amaranth; in vivo) | increase in glufosinate efficacy of johnsongrass (johnsongrass; in vivo) | crop impact of glufosinate and the additive applied during the day [2] | crop injury when applied at 10 pm versus 10 am [2] | effect of the additive on reductions in weed control due to low-light intensity [3] | effect of the additive on reductions in weed control due to low-light intensity [4] | increase in glufosinate efficacy of Palmer amaranth (Palmer amaranth; low-light conditions (10 pm), glufosinate 655 g ai/ha + additive 280 g ai/ha, 25 to 30-cm tall Palmer amaranth) | increase in glufosinate efficacy of johnsongrass (johnsongrass; low-light conditions (10 pm), glufosinate 655 g ai/ha + additive 280 g ai/ha, 15 to 20-cm tall johnsongrass) |
| --- | --- | --- | --- | --- | --- | --- | --- | --- | --- |
| CCOP(=S)(OCC)Oc1nc(Cl)c(Cl)cc1Cl [Chlorpyrifos, O,O-Diethyl O-3,5,6-trichloropyridin-2-yl phosphorothioate] | not eliciting a negative crop response | greatest increase | greatest increase |  |  |  |  |  |  |
| O=C(O)c1cc(Oc2ccc(C(F)(F)F)cc2Cl)ccc1[N+](=O)[O-] [acifluorfen] |  |  |  | negatively impacted at least one of the crops | less | did not alleviate reductions in weed control | did not alleviate reductions in weed control |  |  |
| CCOC(=O)/C=C\C(=O)OCC [diethyl maleate] |  |  |  |  |  |  |  | greatest increase | greatest increase |
| CC(C)N(C)S(=O)(=O)NC(=O)c1cc(-n2c(=O)cc(C(F)(F)F)n(C)c2=O)c(F)cc1Cl [saflufenacil, N′-{2-Chloro-4-fluoro-5-[1,2,3,6-tetrahydro-3-methyl-2,6-dioxo-4-(trifluoromethyl)pyrimidin-1-yl]benzoyl}-N-isopropyl-N-methylsulfamide] |  |  |  | negatively impacted at least one of the crops | less | did not alleviate reductions in weed control | did not alleviate reductions in weed control |  |  |
